This passage reports IC50 results from patent publication US20260216198A1, “GPR35 MODULATORS” (ThirtyFiveBio Limited, priority 2023, published 2026).

Molecules are shown by their SMILES. Some results are limits rather than exact numbers.

The target of the experiment is T1, GPR35 (Homo sapiens, UniProt Q9HC97).
T1 construct: expressed in transfected cells; host or cells: CHO-K1 cells co-expressing mitochondrial aequorin and Gα16
T1 sequence (Q9HC97 whole entry): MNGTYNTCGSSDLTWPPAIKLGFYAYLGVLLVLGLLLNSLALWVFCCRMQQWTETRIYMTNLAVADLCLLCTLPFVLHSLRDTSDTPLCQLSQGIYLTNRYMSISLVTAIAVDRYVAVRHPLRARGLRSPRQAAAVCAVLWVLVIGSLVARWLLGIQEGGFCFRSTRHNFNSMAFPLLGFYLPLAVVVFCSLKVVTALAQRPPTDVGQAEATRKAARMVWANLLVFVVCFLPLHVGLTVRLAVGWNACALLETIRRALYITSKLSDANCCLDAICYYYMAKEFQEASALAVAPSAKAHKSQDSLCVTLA
In words: cellular GPR35 phospho-ERK HTRF assay (inhibition of lodoxamide-induced phospho-ERK signal). It is filed as cell-based. The note with it: GPR35-CHO-K1-mt aequorin-Gα16 cell line; agonist lodoxamide at EC80; read-out: Activity Group (IC50, inhibition of GPR35 agonist-induced phospho-ERK signal). The text has this: The functional GPR35 assay as described in the accompanying examples measures the ability of GPR35 modulators to inhibit a GPR35 agonist-induced phospho-ERK signal. This is expressed as the concentration of modulator required to reduce the phospho-ERK signal by 50 percent, i.e. the IC50; the signal window being defined as the difference between agonist plus modulator vehicle (no modulator) and agonist vehicle (no agonist) controls.
The functional assay described measures the ability of GPR35 modulators to inhibit a GPR35 agonist-induced phospho-ERK signal. This is expressed as the concentration of modulator required to reduce the phospho-ERK signal by 50 percent, i.e. the IC50; the signal window being defined as the difference between agonist plus modulator vehicle (no modulator) and agonist vehicle (no agonist) controls.
This assay is a cellular GPR35 phospho-ERK homogeneous time resolved fluorescence (HTRF) assay using the GPR35-CHO-K1-mt aequorin-Gα16 cell line. Upon activation of GPR35 with the agonist lodoxamide at EC80 concentration, ERK 1/2 is phosphorylated, and after lysis of the cell membrane, phospho-ERK1/2 (Thr202/Tyr204) is detected in a sandwich assay using two different specific antibodies, one labelled with Eu^3+-cryptate (donor) and the second with d2 (acceptor). When the dyes are in proximity, the excitation of the donor with a light source (laser or flash lamp) triggers a Fluorescence Resonance Energy Transfer (FRET) towards the acceptor, resulting in specific acceptor fluorescence (at 665 nm). The specific signal is directly proportional to the amount of phospho-ERK1/2 (Thr202/Tyr204) in the sample. Compounds that interfere with the levels of phospho-ERK1/2 (Thr202/Tyr204) will result in a low HTRF signal.
On the technique in general: Time-resolved FRET reads energy transfer from a long-lived donor to a nearby acceptor.
By IC50 is commonly meant the concentration at which inhibition is half-maximal. On to `O=C(Nc1ccc(OCCc2ccccc2)cc1)c1cccc(-c2ccc(O)c(C(=O)O)c2)c1` [Example 1, 4-Hydroxy-3′-((4-phenethoxyphenyl)carbamoyl)-[1,1′-biphenyl]-3-carboxylic acid], for which the IC50 was below 1000 nM. Then `O=C(Nc1ccc(OCCc2ccccc2)cc1)c1cccc(-c2cnc(C3CC3)c(C(=O)O)c2)c1` [Example 2, 2-Cyclopropyl-5-(3-((4-phenethoxyphenyl)carbamoyl)phenyl)nicotinic acid], with below 1000 nM. Then `O=C(Nc1ccc(OCCc2ccccc2)cc1)c1cccc(-c2c[nH]c(=O)c(C(=O)O)c2)c1` [Example 3, 2-oxo-5-(3-((4-Phenethoxyphenyl)carbamoyl)phenyl)-1,2-dihydropyridine-3-carboxylic acid], with below 1000 nM; and `O=C(Nc1ccc(OCCc2ccccc2)cc1)c1cccc(-c2cnc(C(F)(F)F)c(C(=O)O)c2)c1` [Example 4, 5-(3-((4-Phenethoxyphenyl)carbamoyl)phenyl)-2-(trifluoromethyl)nicotinic acid], with below 1000 nM; and `O=C(O)c1cncc(-c2cccc(C(=O)Nc3ccc(OCCc4ccccc4)cc3)c2)c1` [Example 5, 5-(3-((4-Phenethoxyphenyl)carbamoyl)phenyl)nicotinic acid], with below 1000 nM. Then `O=C(O)Cc1cncc(-c2cccc(C(=O)Nc3ccc(OCCc4ccccc4)cc3)c2)c1` [Example 6, 2-(5-(3-((4-Phenethoxyphenyl)carbamoyl)phenyl)pyridin-3-yl)acetic acid], with below 1000 nM. For the molecule `O=C(Nc1ccc(OCCc2ccccc2)cc1)c1cccc(-c2ccnc(C(=O)O)n2)c1` [Example 7, 4-(3-((4-Phenethoxyphenyl)carbamoyl)phenyl)pyrimidine-2-carboxylic acid], the IC50 was below 1000 nM.

Turning to `Cc1ccc(-c2cccc(C(=O)Nc3ccc(OCCc4ccccc4)cc3)c2)nc1C(=O)O` [Example 8, 3-Methyl-6-(3-((4-phenethoxyphenyl)carbamoyl)phenyl)picolinic acid], the IC50 was below 1000 nM. Then `Nc1ncc(-c2cccc(C(=O)Nc3ccc(OCCc4ccccc4)cc3)c2)nc1C(=O)O` [Example 9, 3-Amino-6-(3-((4-phenethoxyphenyl)carbamoyl)phenyl)pyrazine-2-carboxylic acid], with below 1000 nM; and `Cc1ncc(-c2cccc(C(=O)Nc3ccc(OCCc4ccccc4)cc3)c2)nc1C(=O)O` [Example 10, 3-Methyl-6-(3-((4-phenethoxyphenyl)carbamoyl)phenyl)pyrazine-2-carboxylic acid], with below 1000 nM; and `O=C(Nc1ccc(OCCc2ccccc2)cc1)c1cccc(-c2cnc(F)c(C(=O)O)c2)c1` [Example 11, 2-Fluoro-5-(3-((4-phenethoxyphenyl)carbamoyl)phenyl)nicotinic acid], with below 1000 nM. The result for `Nc1ncc(-c2cccc(C(=O)Nc3ccc(OCCc4ccccc4)cc3)c2)cc1C(=O)O` [Example 12, 2-Amino-5-(3-((4-phenethoxyphenyl)carbamoyl)phenyl)nicotinic acid] reads below 1000 nM; that for `O=C(O)c1ccnc(-c2cccc(C(=O)Nc3ccc(OCCc4ccccc4)cc3)c2)c1` [Example 13, 2-(3-((4-Phenethoxyphenyl)carbamoyl)phenyl)isonicotinic acid], below 1000 nM; that for `O=C(Nc1ccc(OCCc2ccccc2)cc1)c1cccc(-c2cncc(C(=O)O)n2)c1` [Example 14, 6-(3-((4-Phenethoxyphenyl)carbamoyl)phenyl)pyrazine-2-carboxylic acid], below 1000 nM. As for `Cc1ncc(-c2cccc(C(=O)Nc3ccc(OCCc4ccccc4)cc3)c2)cc1C(=O)O` [Example 15, 2-Methyl-5-(3-((4-phenethoxyphenyl)carbamoyl)phenyl)nicotinic acid], the IC50 is below 1000 nM. Consider `Nc1ccc(-c2cccc(C(=O)Nc3ccc(OCCc4ccccc4)cc3)c2)cc1C(=O)O` [Example 16, 4-amino-3′-((4-phenethoxyphenyl)carbamoyl)-[1,1′-biphenyl]-3-carboxylic acid], for which the IC50 was below 1000 nM. The result for `COc1ncc(-c2cccc(C(=O)Nc3ccc(OCCc4ccccc4)cc3)c2)cc1C(=O)O` [Example 17, 2-Methoxy-5-(3-((4-phenethoxyphenyl)carbamoyl)phenyl)nicotinic acid] reads below 1000 nM; that for `O=C(Nc1ccc(OCCc2ccccc2)cc1)c1cccc(-c2cccc(C(=O)O)n2)c1` [Example 18, 6-(3-((4-Phenethoxyphenyl)carbamoyl)phenyl)picolinic acid], below 1000 nM; that for `O=C(Nc1ccc(OCCc2ccccc2)cc1)c1cccc(-c2cnc(Cl)c(C(=O)O)c2)c1` [Example 19, 2-Chloro-5-(3-((4-phenethoxyphenyl)carbamoyl)phenyl)nicotinic acid], below 1000 nM.

Turning to `O=C(O)c1ccc(-c2cccc(C(=O)Nc3ccc(OCCc4ccccc4)cc3)c2)nc1` [Example 20, 6-(3-((4-Phenethoxyphenyl)carbamoyl)phenyl)nicotinic acid], the IC50 is below 1000 nM. The result for `O=C(Nc1ccc(OCCc2ccccc2)cc1)c1cccc(-c2ccnc(C(=O)O)c2)c1` [Example 21, 4-(3-((4-Phenethoxyphenyl)carbamoyl)phenyl)picolinic acid] reads 1000 to 10000 nM; that for `O=C(Nc1ccc(OCCc2ccccc2)cc1)c1cccc(-c2nccc(C(=O)O)n2)c1` [Example 22, 2-(3-((4-Phenethoxyphenyl)carbamoyl)phenyl)pyrimidine-4-carboxylic acid], below 1000 nM; that for `O=C(Nc1ccc(OCCc2ccccc2)cc1)c1cccc(-c2ccc(C(=O)O)nc2)c1` [Example 23, 5-(3-((4-Phenethoxyphenyl)carbamoyl)phenyl)picolinic acid], 1000 to 10000 nM. The result for `Cc1ccc(C(=O)O)nc1-c1cccc(C(=O)Nc2ccc(OCCc3ccccc3)cc2)c1` [Example 24, 5-Methyl-6-(3-((4-phenethoxyphenyl)carbamoyl)phenyl)picolinic acid] reads below 1000 nM; that for `Cc1ncc(C(=O)O)cc1-c1cccc(C(=O)Nc2ccc(OCCc3ccccc3)cc2)c1` [Example 25, 6-Methyl-5-(3-((4-phenethoxyphenyl)carbamoyl)phenyl)nicotinic acid], 1000 to 10000 nM. The result for `O=C(Nc1ccc(OCCc2ccccc2)cc1)c1cccc(-c2ccncc2C(=O)O)c1` [Example 26, 4-(3-((4-Phenethoxyphenyl)carbamoyl)phenyl)nicotinic acid] reads 1000 to 10000 nM; that for `Cc1c(C(=O)O)cncc1-c1cccc(C(=O)Nc2ccc(OCCc3ccccc3)cc2)c1` [Example 27, 4-Methyl-5-(3-((4-phenethoxyphenyl)carbamoyl)phenyl)nicotinic acid], 1000 to 10000 nM; that for `O=C(Nc1ccc(OCCc2ccccc2)cc1)c1cccc(-c2cnnc(C(=O)O)c2)c1` [Example 28, 5-(3-((4-Phenethoxyphenyl)carbamoyl)phenyl)pyridazine-3-carboxylic acid], below 1000 nM.

`NC(=O)c1ncc(-c2cccc(C(=O)Nc3ccc(OCCc4ccccc4)cc3)c2)cc1C(=O)O` [Example 29, 2-Carbamoyl-5-(3-((4-phenethoxyphenyl)carbamoyl)phenyl)nicotinic acid]: the IC50 lay in the range of 1000 to 10000 nM.

Take `CS(=O)(=O)Nc1ncc(-c2cccc(C(=O)Nc3ccc(OCCc4ccccc4)cc3)c2)cc1C(=O)O` [Example 30, 2-(Methylsulfonamido)-5-(3-((4-phenethoxyphenyl)carbamoyl)phenyl)nicotinic acid]: the IC50 was below 1000 nM. The result for `Cn1cc(-c2cccc(C(=O)Nc3ccc(OCCc4ccccc4)cc3)c2)cc(C(=O)O)c1=O` [Example 31, 1-Methyl-2-oxo-5-(3-((4-phenethoxyphenyl)carbamoyl)phenyl)-1,2-dihydropyridine-3-carboxylic acid] reads 1000 to 10000 nM. The result for `O=C(Nc1ccc(OCCc2ccccc2)cc1)c1cccc(-c2cnc(CN3CCOCC3)c(C(=O)O)c2)c1` [Example 32, 2-(Morpholinomethyl)-5-(3-((4-phenethoxyphenyl)carbamoyl)phenyl)nicotinic acid] reads 1000 to 10000 nM; that for `O=C(Nc1ccc(OCCc2ccccc2)cc1)c1cccc(-c2cnc(N3CCOCC3)c(C(=O)O)c2)c1` [Example 33, 2-Morpholino-5-(3-((4-phenethoxyphenyl)carbamoyl)phenyl)nicotinic acid], below 1000 nM. Then `CNc1ncc(-c2cccc(C(=O)Nc3ccc(OCCc4ccccc4)cc3)c2)cc1C(=O)O` [Example 34, 2-(Methylamino)-5-(3-((4-phenethoxyphenyl)carbamoyl)phenyl)nicotinic acid], with below 1000 nM; and `CN(C)c1ncc(-c2cccc(C(=O)Nc3ccc(OCCc4ccccc4)cc3)c2)cc1C(=O)O` [Example 35, 2-(Dimethylamino)-5-(3-((4-phenethoxyphenyl)carbamoyl)phenyl)nicotinic acid], with below 1000 nM.
